Test results: patent publication US12102086B2, “Antimicrobial peptide Spampcin56-86 from Scylla paramamosain and applications thereof” (XIAMEN UNIVERSITY, priority 2021, dated 2024)
Residues, ends and D or L forms follow the SMILES beside them.

Experiments:
E. tarda = conditions: Gram-negative
A. sobria = conditions: Gram-negative
A. baumannii = conditions: CGMC NO. 1.6769, Gram-negative
F. oxysporum = conditions: CGMC NO. 3.6785, fungi
F. solani = conditions: CGMC NO. 3.5840, fungi
P. fluorescens = test: MIC and MBC determination; type: cell-based, Pseudomonas fluorescens; conditions: CGMC NO. 1.3202, Gram-negative
A. baumannii QZ20142 = conditions: A. baumannii QZ20142, drug-resistant clinical isolate
A. hydrophila = conditions: CGMC NO. 1.2017, Gram-negative
E. faecalis = test: MIC and MBC determination; type: cell-based, Enterococcus Faecalis; conditions: CGMC NO. 1.2135, Gram-positive
E. faecium = test: MIC and MBC determination; type: cell-based, Enterococcus Faecium; conditions: CGMC NO. 1.131, Gram-positive
L. monocytogenes = test: MIC and MBC determination; type: cell-based, Listeria Monocytogenes; conditions: CGMC NO. 1.10753, Gram-positive
P. aeruginosa = conditions: CGMC NO. 1.2421, Gram-negative
S. epidermidis = conditions: CGMC NO. 1.4260, Gram-positive

## CC(C)C[C@H](NC(=O)CNC(=O)[C@H](Cc1c[nH]cn1)NC(=O)[C@H](C)NC(=O)[C@H](C)NC(=O)[C@H](CCCNC(=N)N)NC(=O)[C@@H](N)CCCNC(=N)N)C(=O)N[C@@H](CC(C)C)C(=O)N1CCC[C@H]1C(=O)N[C@@H](CCCNC(=N)N)C(=O)N[C@@H](CC(C)C)C(=O)N[C@@H](CCCNC(=N)N)C(=O)N[C@@H](C)C(=O)N1CCC[C@H]1C(=O)N1CCC[C@H]1C(=O)N1CCC[C@H]1C(=O)N[C@@H](Cc1ccccc1)C(=O)N[C@@H](Cc1c[nH]cn1)C(=O)N[C@@H](CCCCN)C(=O)N[C@@H](CCCNC(=N)N)C(=O)N[C@@H](CS)C(=O)N[C@H](C(=O)N[C@@H](CS)C(=O)N[C@@H](CC(C)C)C(=O)N[C@@H](CS)C(=O)N[C@@H](CCCNC(=N)N)C(=O)N[C@H](C(=O)N[C@@H](C)C(=O)N1CCC[C@H]1C(=O)N1CCC[C@H]1C(=O)N1CCC[C@H]1C(=O)O)[C@@H](C)O)C(C)C [Spampcin56-86] (H-RRAAHGLLPRLRAPPPFHKRCVCLCRTAPPP-OH; N-terminus and C-terminus assumed)
E. tarda
  MBC: 24 to 48 µM
  MIC: 3 to 6 µM
A. sobria
  MBC: 3 to 6 µM
  MIC: 3 to 6 µM
A. baumannii
  MBC: 3 to 6 µM
  MIC: 3 to 6 µM
E. coli
  MBC: 3 to 6 µM
  MIC: 3 to 6 µM
F. oxysporum
  MBC: 3 to 6 µM
  MIC: 3 to 6 µM
F. solani
  MBC: 3 to 6 µM
  MIC: 1.5-3^ μM
P. fluorescens
  MBC: 1.5-3^ μM
  MIC: 1.5-3^ μM
A. baumannii QZ20142
  MBC: 3 to 6 µM
  MIC: 3 to 6 µM
A. hydrophila
  MBC: 6 to 12 µM
  MIC: 6 to 12 µM
E. faecalis
  MBC: 1.5-3^ μM
  MIC: 1.5-3^ μM
E. faecium
  MBC: 1.5-3^ μM
  MIC: 0 to 1.5 µM
L. monocytogenes
  MBC: 1.5-3^ μM
  MIC: 1.5-3^ μM
A. baumannii QZ20143
  MIC: 3 to 6 µM
S. aureus QZ19132
  MBC: 12 to 24 µM
P. aeruginosa
  MBC: 3 to 6 µM
  MIC: 1.5-3^ μM
S. aureus
  MBC: 3 to 6 µM
S. epidermidis
  MBC: 3 to 6 µM
  MIC: 3 to 6 µM
